Measurements reported in the kinase profiling compilation of Christmann-Franck et al. (2016).

Experiments:
Assay in all cases: KINOMEscan competition binding
Details in all cases: compound 10.0 µM
[1] = target: STK17B (human) (UniProt O94768)
[2] = target: HIPK2 (human) (UniProt Q9H2X6)
[3] = target: LRRK2 (human) (UniProt Q5S007)
[4] = target: CDK16 (human) (UniProt Q00536)
[5] = target: STK39 (human) (UniProt Q9UEW8)
[6] = target: ERBB2 (human) (UniProt P04626)
[7] = target: PIK3CG (human) (UniProt P48736)
[8] = test system: EGFR (human), P00533 [752-759 del]
[9] = target: PIK3CD (human) (UniProt O00329)
[10] = target: YSK4 (human) (UniProt Q56UN5)
YSK4 (human), sequence (Q56UN5 whole entry, looked up): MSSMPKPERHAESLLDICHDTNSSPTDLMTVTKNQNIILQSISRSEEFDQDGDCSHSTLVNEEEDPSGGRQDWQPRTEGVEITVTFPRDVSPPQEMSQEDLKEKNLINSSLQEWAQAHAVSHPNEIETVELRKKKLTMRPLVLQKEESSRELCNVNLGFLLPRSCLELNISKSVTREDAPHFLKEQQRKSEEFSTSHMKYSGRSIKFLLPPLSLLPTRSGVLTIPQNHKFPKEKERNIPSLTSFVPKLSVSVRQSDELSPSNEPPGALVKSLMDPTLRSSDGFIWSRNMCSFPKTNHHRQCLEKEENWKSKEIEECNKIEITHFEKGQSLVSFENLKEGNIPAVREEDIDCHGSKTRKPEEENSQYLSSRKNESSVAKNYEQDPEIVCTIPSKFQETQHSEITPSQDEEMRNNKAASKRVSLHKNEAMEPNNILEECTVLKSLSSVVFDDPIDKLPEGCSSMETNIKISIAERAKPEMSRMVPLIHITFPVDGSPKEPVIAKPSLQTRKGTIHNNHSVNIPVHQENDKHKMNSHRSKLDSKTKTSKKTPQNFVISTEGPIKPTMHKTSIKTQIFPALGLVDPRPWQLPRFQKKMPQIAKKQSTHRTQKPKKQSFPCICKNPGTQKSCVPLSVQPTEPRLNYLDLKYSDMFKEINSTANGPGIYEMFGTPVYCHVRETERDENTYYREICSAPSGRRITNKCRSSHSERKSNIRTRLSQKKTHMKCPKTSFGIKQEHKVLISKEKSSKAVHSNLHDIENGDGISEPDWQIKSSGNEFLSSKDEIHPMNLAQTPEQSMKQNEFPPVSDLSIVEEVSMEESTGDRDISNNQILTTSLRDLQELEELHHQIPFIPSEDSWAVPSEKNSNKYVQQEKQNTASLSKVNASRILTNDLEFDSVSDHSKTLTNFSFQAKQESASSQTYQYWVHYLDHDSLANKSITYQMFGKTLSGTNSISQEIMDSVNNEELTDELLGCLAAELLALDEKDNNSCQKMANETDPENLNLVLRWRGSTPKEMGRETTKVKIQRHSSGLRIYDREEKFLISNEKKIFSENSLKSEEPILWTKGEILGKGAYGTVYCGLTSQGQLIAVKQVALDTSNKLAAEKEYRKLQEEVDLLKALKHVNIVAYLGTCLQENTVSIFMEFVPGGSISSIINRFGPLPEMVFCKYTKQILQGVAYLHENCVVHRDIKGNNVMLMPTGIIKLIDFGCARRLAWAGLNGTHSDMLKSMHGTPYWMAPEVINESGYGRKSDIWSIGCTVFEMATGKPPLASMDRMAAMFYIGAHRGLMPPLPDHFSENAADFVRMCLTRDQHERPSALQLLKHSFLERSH

[11] = target: STK10 (human) (UniProt O94804)
[12] = test system: CPK1 (P.falciparum)
[13] = target: MKNK1 (human) (UniProt Q9BUB5)
[14] = target: DMPK (human) (UniProt Q09013)
[15] = target: CSK (human) (UniProt P41240)
[16] = target: SRPK1 (human) (UniProt Q96SB4)
[17] = target: CDK7 (human) (UniProt P50613)
[18] = target: HIPK1 (human) (UniProt Q86Z02)
[19] = target: PRKAA1 (human) (UniProt Q13131)
[20] = target: ERN1 (human) (UniProt O75460)
[21] = target: EPHA7 (human) (UniProt Q15375)
EPHA7 (human), sequence (Q15375 whole entry, looked up): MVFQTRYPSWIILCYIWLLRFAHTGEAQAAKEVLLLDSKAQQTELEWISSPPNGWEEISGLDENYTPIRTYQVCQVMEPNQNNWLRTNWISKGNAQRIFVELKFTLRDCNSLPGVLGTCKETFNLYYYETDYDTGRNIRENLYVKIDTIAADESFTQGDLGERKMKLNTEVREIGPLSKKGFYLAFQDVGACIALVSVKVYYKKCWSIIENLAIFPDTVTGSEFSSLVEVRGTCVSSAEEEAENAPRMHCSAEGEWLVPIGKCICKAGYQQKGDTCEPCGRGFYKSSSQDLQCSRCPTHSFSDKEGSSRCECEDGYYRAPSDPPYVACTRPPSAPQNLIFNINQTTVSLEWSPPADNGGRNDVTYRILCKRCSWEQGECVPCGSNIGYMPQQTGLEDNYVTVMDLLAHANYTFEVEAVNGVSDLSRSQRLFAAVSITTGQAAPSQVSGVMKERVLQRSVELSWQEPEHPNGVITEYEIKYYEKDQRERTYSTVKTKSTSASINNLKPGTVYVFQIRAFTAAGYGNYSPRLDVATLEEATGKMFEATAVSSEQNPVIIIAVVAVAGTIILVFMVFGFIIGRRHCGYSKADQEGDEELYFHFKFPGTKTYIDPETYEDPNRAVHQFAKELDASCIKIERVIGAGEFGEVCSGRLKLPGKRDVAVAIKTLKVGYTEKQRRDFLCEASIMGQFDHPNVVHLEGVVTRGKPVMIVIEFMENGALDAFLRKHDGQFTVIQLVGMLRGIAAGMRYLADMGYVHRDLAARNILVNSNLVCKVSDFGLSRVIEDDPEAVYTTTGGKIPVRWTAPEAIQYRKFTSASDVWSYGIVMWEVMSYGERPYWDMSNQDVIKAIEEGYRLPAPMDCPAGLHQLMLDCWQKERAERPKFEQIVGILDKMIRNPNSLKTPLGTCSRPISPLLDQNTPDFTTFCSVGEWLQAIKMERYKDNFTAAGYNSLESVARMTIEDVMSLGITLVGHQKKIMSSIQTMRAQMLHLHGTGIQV

[22] = target: RPS6KA5 KD1 (human) (UniProt O75582)
RPS6KA5 KD1 (human), sequence (O75582 whole entry, looked up): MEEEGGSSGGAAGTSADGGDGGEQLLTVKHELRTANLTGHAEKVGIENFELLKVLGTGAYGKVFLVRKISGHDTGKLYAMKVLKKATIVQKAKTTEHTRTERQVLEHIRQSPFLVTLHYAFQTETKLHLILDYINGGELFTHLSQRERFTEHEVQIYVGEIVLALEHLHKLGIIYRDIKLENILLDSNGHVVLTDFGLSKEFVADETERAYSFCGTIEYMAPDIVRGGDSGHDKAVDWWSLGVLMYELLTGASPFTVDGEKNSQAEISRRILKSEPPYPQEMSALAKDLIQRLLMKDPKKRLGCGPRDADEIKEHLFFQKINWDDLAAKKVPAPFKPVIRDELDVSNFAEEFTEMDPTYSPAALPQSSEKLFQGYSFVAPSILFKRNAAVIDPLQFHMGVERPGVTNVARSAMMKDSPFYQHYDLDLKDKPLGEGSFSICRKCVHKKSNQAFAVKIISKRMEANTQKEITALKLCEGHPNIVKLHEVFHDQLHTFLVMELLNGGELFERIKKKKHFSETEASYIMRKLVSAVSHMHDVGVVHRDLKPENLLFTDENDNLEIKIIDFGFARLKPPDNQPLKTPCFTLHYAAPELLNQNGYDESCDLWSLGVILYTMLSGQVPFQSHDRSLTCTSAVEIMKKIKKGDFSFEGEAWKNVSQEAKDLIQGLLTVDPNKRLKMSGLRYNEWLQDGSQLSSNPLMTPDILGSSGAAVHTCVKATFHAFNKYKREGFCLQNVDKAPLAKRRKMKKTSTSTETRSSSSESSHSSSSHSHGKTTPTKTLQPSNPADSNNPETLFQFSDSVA

[23] = target: ABL2 (human) (UniProt P42684)
[24] = target: CDK11B (human) (UniProt P21127)
[25] = target: SIK2 (human) (UniProt Q9H0K1)
[26] = target: CDK17 (human) (UniProt Q00537)
[27] = target: MYO3A (human) (UniProt Q8NEV4)
[28] = target: EIF2AK1 (human) (UniProt Q9BQI3)
[29] = target: BMPR1A (human) (UniProt P36894)
[30] = target: CLK4 (human) (UniProt Q9HAZ1)
[31] = target: PRKCD (human) (UniProt Q05655)
[32] = target: CDK9 (human) (UniProt P50750)
[33] = target: LCK (human) (UniProt P06239)
LCK (human), sequence (P06239 whole entry, looked up): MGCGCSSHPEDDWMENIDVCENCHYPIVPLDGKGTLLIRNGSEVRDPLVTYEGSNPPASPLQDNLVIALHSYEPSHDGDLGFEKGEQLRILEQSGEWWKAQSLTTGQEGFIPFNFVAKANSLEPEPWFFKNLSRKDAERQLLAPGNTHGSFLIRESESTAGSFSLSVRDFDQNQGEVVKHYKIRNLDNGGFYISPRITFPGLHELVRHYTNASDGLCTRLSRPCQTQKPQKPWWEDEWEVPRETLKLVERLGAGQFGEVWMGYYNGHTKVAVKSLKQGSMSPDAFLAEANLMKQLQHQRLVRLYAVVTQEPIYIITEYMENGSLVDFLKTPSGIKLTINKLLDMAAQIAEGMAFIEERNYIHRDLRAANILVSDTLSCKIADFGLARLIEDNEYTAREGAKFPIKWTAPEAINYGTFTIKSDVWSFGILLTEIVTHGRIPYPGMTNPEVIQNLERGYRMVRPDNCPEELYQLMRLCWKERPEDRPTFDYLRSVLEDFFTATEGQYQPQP

[34] = target: ADCK4 (human) (UniProt Q96D53)
[35] = target: FER (human) (UniProt P16591)
[36] = target: IKBKE (human) (UniProt Q14164)
[37] = target: RPS6KA5 KD2 (human) (UniProt O75582)
RPS6KA5 KD2 (human), sequence (O75582 whole entry, looked up): as the sequence (O75582 whole entry, looked up) above

[38] = test system: KIT (human), P10721 [L576P]
[39] = target: CDC42BPB (human) (UniProt Q9Y5S2)
[40] = target: NTRK1 (human) (UniProt P04629)
NTRK1 (human), sequence (P04629 whole entry, looked up): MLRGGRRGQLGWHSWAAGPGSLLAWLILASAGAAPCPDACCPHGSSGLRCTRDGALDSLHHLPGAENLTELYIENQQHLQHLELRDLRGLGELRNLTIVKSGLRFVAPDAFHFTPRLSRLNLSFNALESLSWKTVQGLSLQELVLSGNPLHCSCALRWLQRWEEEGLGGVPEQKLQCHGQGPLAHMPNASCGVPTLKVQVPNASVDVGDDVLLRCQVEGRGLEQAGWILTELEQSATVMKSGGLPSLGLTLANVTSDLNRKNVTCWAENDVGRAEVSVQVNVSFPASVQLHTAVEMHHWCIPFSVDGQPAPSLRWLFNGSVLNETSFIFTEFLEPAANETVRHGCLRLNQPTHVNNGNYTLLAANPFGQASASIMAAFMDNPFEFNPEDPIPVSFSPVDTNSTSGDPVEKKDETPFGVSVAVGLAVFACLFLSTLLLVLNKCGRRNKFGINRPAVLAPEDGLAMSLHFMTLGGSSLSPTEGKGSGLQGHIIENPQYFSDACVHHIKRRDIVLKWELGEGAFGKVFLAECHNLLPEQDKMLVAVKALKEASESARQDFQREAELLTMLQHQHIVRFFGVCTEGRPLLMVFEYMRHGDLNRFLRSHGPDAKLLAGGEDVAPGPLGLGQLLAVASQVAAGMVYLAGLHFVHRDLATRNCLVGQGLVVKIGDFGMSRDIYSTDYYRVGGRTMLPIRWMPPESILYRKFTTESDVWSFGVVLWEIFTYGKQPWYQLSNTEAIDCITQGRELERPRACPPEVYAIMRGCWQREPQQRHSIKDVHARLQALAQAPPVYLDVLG

CDK16 (human), sequence (Q00536 whole entry, looked up): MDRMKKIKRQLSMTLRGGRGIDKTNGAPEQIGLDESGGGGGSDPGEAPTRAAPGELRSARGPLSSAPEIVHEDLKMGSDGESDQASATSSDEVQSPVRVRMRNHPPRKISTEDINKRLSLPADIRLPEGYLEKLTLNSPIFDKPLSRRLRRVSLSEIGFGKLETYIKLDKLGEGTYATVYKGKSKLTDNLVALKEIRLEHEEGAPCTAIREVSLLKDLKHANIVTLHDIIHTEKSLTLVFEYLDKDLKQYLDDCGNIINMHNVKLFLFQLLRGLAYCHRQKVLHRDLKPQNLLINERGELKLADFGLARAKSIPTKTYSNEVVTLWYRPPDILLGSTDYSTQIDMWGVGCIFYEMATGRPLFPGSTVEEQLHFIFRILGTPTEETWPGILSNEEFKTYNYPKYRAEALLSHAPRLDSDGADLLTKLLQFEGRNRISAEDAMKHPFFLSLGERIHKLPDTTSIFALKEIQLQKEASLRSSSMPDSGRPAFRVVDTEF

SMILES | kinase still bound, per cent of control [1] [%] | kinase still bound, per cent of control [2] [%] | kinase still bound, per cent of control [3] [%] | kinase still bound, per cent of control [4] [%] | kinase still bound, per cent of control [5] [%] | kinase still bound, per cent of control [6] [%] | kinase still bound, per cent of control [7] [%] | kinase still bound, per cent of control [8] [%] | kinase still bound, per cent of control [9] [%] | kinase still bound, per cent of control [10] [%] | kinase still bound, per cent of control [11] [%] | kinase still bound, per cent of control [12] [%] | kinase still bound, per cent of control [13] [%] | kinase still bound, per cent of control [14] [%] | kinase still bound, per cent of control [15] [%] | kinase still bound, per cent of control [16] [%] | kinase still bound, per cent of control [17] [%] | kinase still bound, per cent of control [18] [%] | kinase still bound, per cent of control [19] [%] | kinase still bound, per cent of control [20] [%] | also measured
COc1cc(C(=O)N2CCC(N3CCN(C)CC3)CC2)ccc1Nc1ncc2c(n1)N(C)c1ccccc1C(=O)N2C | 93 | 88 | 0 | 96 | 39 | 100 | 15 | 99 | 62 | 99 | 100 | 100 | 50 | 100 | 90 | 94 | 86 | 100 | 51 | 59 | kinase still bound, per cent of control [21]: 97%; kinase still bound, per cent of control [22]: 96%; kinase still bound, per cent of control [23]: 97%; kinase still bound, per cent of control [24]: 84%; kinase still bound, per cent of control [25]: 98%; kinase still bound, per cent of control [26]: 83%; kinase still bound, per cent of control [27]: 94%; kinase still bound, per cent of control [28]: 100%; kinase still bound, per cent of control [29]: 76%; kinase still bound, per cent of control [30]: 54%; kinase still bound, per cent of control [31]: 75%; kinase still bound, per cent of control [32]: 100%; kinase still bound, per cent of control [33]: 100%; kinase still bound, per cent of control [34]: 94%; kinase still bound, per cent of control [35]: 51%; kinase still bound, per cent of control [36]: 96%; kinase still bound, per cent of control [37]: 92%; kinase still bound, per cent of control [38]: 100%; kinase still bound, per cent of control [39]: 100%; kinase still bound, per cent of control [40]: 69%
COc1ccc(N(C(=O)Oc2c(C)cccc2C)c2ccnc(Nc3ccc(N4CCN(C)CC4)cc3)n2)c(OC)c1 | 100 | 100 | 78 | 98 | 100 | 15 | 100 | 1 | 92 | 6 | 0 | 5 | 98 | 0.05 | 2.5 | 23 | 100 | 100 | 23 | 62 | kinase still bound, per cent of control [21]: 26%; kinase still bound, per cent of control [22]: 100%; kinase still bound, per cent of control [23]: 0.1%; kinase still bound, per cent of control [24]: 58%; kinase still bound, per cent of control [25]: 7.6%; kinase still bound, per cent of control [26]: 80%; kinase still bound, per cent of control [27]: 69%; kinase still bound, per cent of control [28]: 100%; kinase still bound, per cent of control [29]: 0.1%; kinase still bound, per cent of control [30]: 100%; kinase still bound, per cent of control [31]: 9.8%; kinase still bound, per cent of control [32]: 33%; kinase still bound, per cent of control [33]: 0.1%; kinase still bound, per cent of control [34]: 20%; kinase still bound, per cent of control [35]: 0.85%; kinase still bound, per cent of control [36]: 78%; kinase still bound, per cent of control [37]: 93%; kinase still bound, per cent of control [38]: 1%; kinase still bound, per cent of control [39]: 2.9%; kinase still bound, per cent of control [40]: 78%
O=C1NC(=O)/C(=C/c2ccc3nccc(-c4ccncc4)c3c2)S1 | 0.6 | 0.15 | 62 | 71 | 71 | 66 | 0 | 95 | 4.8 | 0.05 | 0.1 | 11 | 84 | 2.9 | 80 | 100 | 1.7 | 6.9 | 88 | 66 | kinase still bound, per cent of control [21]: 88%; kinase still bound, per cent of control [22]: 100%; kinase still bound, per cent of control [23]: 77%; kinase still bound, per cent of control [24]: 95%; kinase still bound, per cent of control [25]: 100%; kinase still bound, per cent of control [26]: 59%; kinase still bound, per cent of control [27]: 85%; kinase still bound, per cent of control [28]: 82%; kinase still bound, per cent of control [29]: 2%; kinase still bound, per cent of control [30]: 0.2%; kinase still bound, per cent of control [31]: 20%; kinase still bound, per cent of control [32]: 16%; kinase still bound, per cent of control [33]: 62%; kinase still bound, per cent of control [34]: 35%; kinase still bound, per cent of control [35]: 50%; kinase still bound, per cent of control [36]: 45%; kinase still bound, per cent of control [37]: 4.6%; kinase still bound, per cent of control [38]: 34%; kinase still bound, per cent of control [39]: 66%; kinase still bound, per cent of control [40]: 78%
